Test results as given in EP1200395B1, “UREA DERIVATIVES AS INHIBITORS OF CCR-3 RECEPTOR” (KIRIN BEER KABUSHIKI KAISHA, priority 1999, dated 2001).

Legend:
[1] = biological target: T1, CCR-3 (Homo sapiens, UniProt P51677); assay: Eotaxin-induced chemotaxis of CCR-3 transfectant cells (CCR3/U937); format: cell-based; set-up: expressed in transfected cells; host or cells: U937; conditions: eotaxin 1 x 10^-9 M; for inhibition at 10 µM: U-937; for inhibition at 10 µM / Chemotaxis Assay 10 µM (inhibition %): 10 µM test compound; for CCR-3 Transfectant Chemotaxis Assay 6.25 µg/ml (inhibition %): 6.25 µg/ml test compound, CCR3/U937 cells (Table 3b)
T1 sequence (P51677 1-355): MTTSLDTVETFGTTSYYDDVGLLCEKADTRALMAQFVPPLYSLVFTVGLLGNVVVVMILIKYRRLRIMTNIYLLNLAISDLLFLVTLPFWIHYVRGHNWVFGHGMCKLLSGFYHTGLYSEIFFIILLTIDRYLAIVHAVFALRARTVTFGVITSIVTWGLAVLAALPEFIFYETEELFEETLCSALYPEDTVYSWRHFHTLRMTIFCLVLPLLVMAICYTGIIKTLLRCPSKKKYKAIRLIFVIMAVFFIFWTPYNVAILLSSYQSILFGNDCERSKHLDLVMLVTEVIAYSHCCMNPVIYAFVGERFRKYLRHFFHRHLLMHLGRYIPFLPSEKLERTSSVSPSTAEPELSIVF

[2] = system: human-derived eosinophils; assay: Eotaxin-induced chemotaxis of cultured eosinophils; format: cell-based; conditions: 10.00 µM compound, human eotaxin 1 x 10^-9 M, 37°C for 1 hour; for inhibition at 10 µM: Eosinophil
Method: The inhibitory activity of the compounds against eotaxin-mediated chemotaxis of human-derived eosinophils was determined assay described below. Eosinophils were prepared from culture of human cord blood mononuclear cells as described by Ohashi, H. et al., Int Arch Allergy Immunol. (1999) 118, 44-50. For the assay, eosinophils were resuspended at 1 x 10^7 cells/ml in assay medium (RPMI 1640 medium containing 0.1 % bovine serum albumin (BSA)). The chemotaxis assay was performed in a 24-well culture plate. Human eotaxin suspended in assay medium was added into wells at 1 x 10^-9 M with test compounds at various concentrations. For a positive control, eotaxin was added without a test compound, and for a negative control, neither eotaxin nor a test compound was added to the wells. Chemotaxicell (Kurabo Co., Ltd.) having 5 micrometers pore size were inserted into each well and 100 microliters of eosinophil suspension were added to the top chamber. The plates were incubated at 37°C for 1 hour. After incubation, migrated cells in lower wells were diluted and counted by particle size distribution analyzer (CDP-500, Sysmex Co., Ltd.).

[3] = system: bronchoconstriction provoked by acetylcholine; assay: Airway hyperreactivity: bronchoconstriction provoked by acetylcholine (murine asthma model, OVA-immunized mice); format: in vivo, Male BALB/c mice; conditions: administered intraperitoneally for 9 days, starting on the first day of antigen inhalation; Figure 2A
Method: (§1) Male BALB/c mice were immunized by an intraperitoneal injection of 10 µg OVA adsorbed to 1 mg aluminum hydroxide gel (alum). A booster injection of the same dose of alum-adsorbed OVA was given 5 days later. Unitnmunized control mice received saline.
(§2) Twelve days after primary immunization, both the immunized and unimmunized mice were exposed to aerosolized antigen. Aerosolization of OVA was performed using a nose-only aerosol chamber adapted for mice. Animals were exposed for 10 minutes to 5 mg/ml OVA aerosolized by an ultrasonic nebulizer (NE-U12, Omron, Tokyo, Japan) driven by a vacuum pump. The antigen bronchoprovocation was repeated on day 16 and day 20 under the same conditions. Compound No. 298 (CPD No. 298) was dissolved in saline containing 2 % DMSO and 2 % Cremophore and administered intraperitoneally for 9 days, starting on the first day of antigen inhalation.
Twenty-four hours after the final aerosol exposure, bronchoconstriction was measured by the overflow method of Konzett and Rössler. […] Bronchoconstriction was recorded on a flatbed recorder (Model FBR-252A, TOA Electronics Ltd., Tokyo, Japan). […]

[4] = system: collagen-induced arthritis; assay: Type II collagen-induced arthritis in mice, clinical score; format: in vivo, Male DBA/1 mice; conditions: 20 mg/kg per day subcutaneously starting at 2nd immunization; versus control vehicle; Figure 1A/1B
[5] = system: eosinophil infiltration to bronchoalveolar lavage fluid (BALF); assay: Eosinophil infiltration in bronchoalveolar lavage fluid (BALF), murine asthma model; format: in vivo, Male BALB/c mice; conditions: administered intraperitoneally for 9 days; two hundred cells counted per slide; Figure 2C
Method: as §1, §2
Immediately after the measurement of airway reactivity to acethycholine, BALF was collected by lavaging whole-lung three times with 0.7-ml aliquots of physiological saline containing 0.1 % BSA via the tracheal cannula while gently massaging the thorax. The BALF recovered from one mouse was pooled, centrifuged, and the cells were resuspended in 100 µl saline containing 0.1 % BSA. Cell numbers were determined using a hemocytometer and 2 x 10^4 cells were cytecetrifuged onto a glass slide. […]

[6] = biological target: T1, CCR-3; assay: Calcium mobilization assay (inhibition of eotaxin-induced intracellular calcium mobilization in CCR3/HEK293 cells); format: cell-based; set-up: expressed in transfected cells; conditions: 6.25 µg/ml test compound; eotaxin 10 nM; CCR3/HEK293 cells (Table 2a)
Method: Compounds 93-162 used in this assay were synthesized by using the method described in Example 6.
CCR-3 transfectant cells (CCR3/HEK293) were isolated and resuspended with assay buffer (20 mM HEPES, 125 mM NaCl, 5 mM KCl; 0.5 mM glucose, 1 mM CaCl2, 1 mM MgCl2, 0.1 % BSA). After washing CCR3/HEK293 cells with assay buffer, cells were loaded with Fura-2/AM in assay buffer for 1 hour at room temperature. Cells were washed and resuspended with assay buffer at 5 x 10^6 cells/ml in assay buffer, and placed in a tissue culture plate (Falcon, no. 3296). Test compounds dissolved in DMSO were added to the wells, followed by eotaxin (10 nM at final concentration). Cells were excited at 340 nm and 380 nm in a fluorimeter (ARGUS50, FDSS2000, Hamamatsu Photonics) and the relative ratio of the fluorescence emitted at 510 nm was recorded. For a control, DMSO without a test compound was added. Intracellular calcium mobilization was calculated as described in Krogel C. et al. , FEBS Let. (1989) 243 , 41-46.

Row | Structure (SMILES) | Ca^2+ mobilization 6.25 µg/ml (inhibition %) [6] [%] | CCR-3 Transfectant Chemotaxis Assay 6.25 µg/ml (inhibition %) [1] [%] | inhibition at 10 µM [2] [%] | further results
1 | CCN(CCCNC(=O)Nc1ccccc1)CCc1ccc(Cl)cc1 [Compound 1, N-Phenylcarbamoyl-N'-[2-(4-chlorophenyl)ethyl]-N'-ethyl-1,3-diaminopropane] |  |  | 100 | inhibition at 10 µM ([1]; CCR3/U937 cells (Table 3a)): 100%
2 | C[C@H](c1ccccc1)N(CCCNC(=O)Nc1ccc(Br)cc1)CCCC(=O)O [Compound 61, 4-[[3-(4-Bromophenylureido)propyl][(1R)-1-phenylethyl]amino]-butanoic acid] |  |  | 100 | inhibition at 10 µM ([1]; CCR3/U937 cells (Table 3a)): 100%
3 | CC[N+](CC)(CCCNC(=O)Nc1ccccc1)CCc1ccc(Cl)cc1 [Compound 91, [3-(Phenylureido)propyl][2-(4-chlorophenyl)ethyl]-diethylammonium iodide] |  |  | 100 | inhibition at 10 µM ([1]; CCR3/U937 cells (Table 3c)): 100%
4 | CC[N+](CC)(CCCNC(=O)Nc1ccc(Br)cc1)CCc1ccc(Cl)cc1 [Compound 92, [3-(4-Bromophenylureido)propyl][2-(4-chlorophenyl)ethyl]-diethylammonium iodide] |  |  | 100 | inhibition at 10 µM ([1]; CCR3/U937 cells (Table 3c)): 100%
5 | O=C(O)CCCN(CCCNC(=O)Nc1ccc(Cl)c(Cl)c1)C1CCCc2ccccc21 (centres unmarked) [Compound 65, 4-[[3-(3,4-Dichlorophenylureido)propyl](1,2,3,4-tetrahydro-1-naphthyl)amino]butanoic acid] |  |  | 100 | inhibition at 10 µM ([1]; CCR3/U937 cells (Table 3a)): 100%
6 | COc1cc(CN(CCCNC(=O)Nc2ccc(Br)cc2)CCCC(=O)O)cc(OC)c1OC [Compound 66] |  |  |  | Chemotaxis Assay 10 µM (inhibition %) ([1]; CCR3/U937 cells (Table 3a)): 32%; Cultured Eosinophil Chemotaxis assay 10.00 µM (inhibition %) [2]: 44%
7 | CC[N+](CCCNC(=O)Nc1ccccc1)(CCc1ccc(Cl)cc1)Cc1ccc(Cl)cc1.[I-] (centres unmarked) [Compound 298, [3-(Phenylureido)propyl][2-(4-chlorophenyl)ethyl](4-chlorobenzyl)ethylammonium iodide] |  |  |  | bronchoconstriction provoked by acetylcholine [3]: Inhibition of bronchoconstriction; inhibition at 10 µM ([1]; CCR3/U937 cells (Table 3c)): 100%; clinical score, collagen-induced arthritis [4]: marked prevention in clinical score; eosinophil infiltration to bronchoalveolar lavage fluid (BALF) [5]: significantly suppressed eosinophil infiltration
8 | O=C(O)CCCN(CCCNC(=O)Nc1ccc(Br)cc1)Cc1ccccc1 [Compound 67] |  |  |  | Chemotaxis Assay 10 µM (inhibition %) ([1]; CCR3/U937 cells (Table 3a)): 100%; Cultured Eosinophil Chemotaxis assay 10.00 µM (inhibition %) [2]: 71%
9 | O=C(O)CCCN(CCCNC(=O)Nc1ccc(Br)cc1)C1CCCc2ccccc21 (centres unmarked) [Compound 60, 4-[[3-(4-Bromophenylureido)propyl](1,2,3,4-tetrahydro-1-naphthyl)amino]butanoic acid] |  |  | 100 | inhibition at 10 µM ([1]; CCR3/U937 cells (Table 3a)): 98%; clinical score, collagen-induced arthritis [4]: marked prevention in clinical score
10 | Cc1cccc(NC(=O)NCCCN(C[C@@H]2CCCN2)C2CCCc3ccccc32)c1 (some centres unmarked) [Compound 135] | 57 | 12 |  | 
11 | CCN(CCCNC(=O)Nc1ccc(Br)cc1)CCc1ccc(Cl)cc1 [Compound 3, N-(4-Bromophenylcarbamoyl)-N'-[2-(4-chlorophenyl)ethyl]-N'-ethyl-1,3-diaminopropane] |  |  | 100 | inhibition at 10 µM ([1]; CCR3/U937 cells (Table 3a)): 100%
12 | CC(C)CN(CCCNC(=O)Nc1ccc(Br)cc1)C1CCCc2ccccc21 (centres unmarked) [Compound 122] | 66 | 92 |  | 
13 | CCOC(=O)C1CC1CN(CCCNC(=O)Nc1ccccc1-c1ccccc1)CCc1ccc(Cl)c(Cl)c1 (centres unmarked) [Compound 115] | 57 | 62 |  | 
14 | CCOC(=O)C1CC1CN(CCCNC(=O)Nc1cccc(Cl)c1)CCc1ccc(Cl)c(Cl)c1 (centres unmarked) [Compound 155] | 69 | 56 |  | 
15 | CCOC(=O)C1CC1CN(CCCNC(=O)Nc1cccc(Cl)c1)C1CCCc2ccccc21 (centres unmarked) [Compound 149] | 56 | 31 |  | 
16 | O=C(NCCCN(Cc1ccc2c(c1)OCO2)C[C@@H]1CCCN1)Nc1ccc(Br)cc1 [Compound 128] | 55 | 33 |  | 
17 | CCOC(=O)C1CC1CN(CCCNC(=O)Nc1ccccc1-c1ccccc1)CCc1ccc(C)cc1 (centres unmarked) [Compound 112] | 52 | 26 |  | 
18 | COC(=O)CCCN(CCCNC(=O)Nc1ccc(Br)cc1)Cc1ccco1 [Compound 38] |  |  |  | Chemotaxis Assay 10 µM (inhibition %) ([1]; CCR3/U937 cells (Table 3a)): 46%; Cultured Eosinophil Chemotaxis assay 10.00 µM (inhibition %) [2]: 11%
19 | CCOC(=O)C1CC1CN(CCCNC(=O)Nc1ccccc1-c1ccccc1)CCc1ccc(OC)c(OC)c1 (centres unmarked) [Compound 109] | 51 | 12 |  | 

Second part, led by results:

Row | Ca^2+ mobilization 6.25 µg/ml (inhibition %) [6] [%] | CCR-3 Transfectant Chemotaxis Assay 6.25 µg/ml (inhibition %) [1] [%] | Structure (SMILES) | inhibition at 10 µM [2] [%] | further results
20 | 63 | 21 | O=C(O)CCCN(CCCNC(=O)Nc1ccc(Br)cc1)CCc1ccc(Cl)c(Cl)c1 [Compound 133] |  | 
21 | 58 | 62 | CC(C)CN(CCCNC(=O)Nc1ccc(Br)cc1)CCc1c[nH]cn1 [Compound 118] |  | 
22 | 52 | 64 | O=C(NCCCN(CCOCc1ccccc1)CCc1c[nH]cn1)Nc1ccc(Br)cc1 [Compound 121] |  | 
